According to PubChem BioAssay AID1963430 (Molecular Pharmacology Branch, DTP, NCI, 2024):
“And” between values parts separate entries of the source, which are not always exact repeats. Identical values can stand only once.

Test system: 521955-158-R2-J5-PDC complex spheroid growth, % test/control
Experiment: Anticancer human tumor 521955-158-R2-J5-PDC patient-derived pancreatic carcinoma cell line growth inhibition [Asc]
Settings: for viability, T/C: stronger effect = lower value; active = viability on the fitted dose curve at most 10% of control; inactive = the rest
Method in brief: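 Tumor cells were grown as multicellular spheroids with stromal HUVEC and mesenchymal stem cells and treated singly or in combination. Concentrations fell in half-log steps from the clinical Cmax, or from 10 microM where none was known.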

[1] = curve of first compound, second compound 0.1 µM
[2] = curve of first compound, second compound 0.316 µM
[3] = curve of first compound, second compound 1 µM
[4] = second compound 0.1 µM, first compound 0.0316 µM
[5] = second compound 0.1 µM, first compound 0.1 µM
[6] = second compound 0.316 µM, first compound 0.0316 µM
[7] = second compound 0.316 µM, first compound 0.1 µM
[8] = second compound 1 µM, first compound 0.0316 µM
[9] = second compound 1 µM, first compound 0.1 µM
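Also: spheroids exposed to agents for 7 days before readout.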
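For viability, T/C in this document: 100% = DMSO vehicle control viability.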

NC1CCC(NC2CC2c2ccccc2)CC1 (centres undefined) + Cc1c(S(C)(=O)=O)c(-c2cc(F)cc(N3CCN(c4ccc(NS(=O)(=O)c5ccc(NC(CCN6CCC(C(=O)OCCCP(=O)(O)O)CC6)CSc6ccccc6)c(S(=O)(=O)C(F)(F)F)c5)cc4)CC3)c2)c(-c2ccc(Cl)cc2)n1C(C)C
inactive: viability, T/C (second compound 0.1 µM, first compound 0.000316 µM) 58% | viability, T/C (second compound 0.1 µM, first compound 0.001 µM) 46.2% | viability, T/C (second compound 0.1 µM, first compound 0.00316 µM) 56.8% | viability, T/C (second compound 0.1 µM, first compound 0.01 µM) 48.5% | viability, T/C [4] 37.8% | viability, T/C [5] 48.4% | viability, T/C (second compound 0.316 µM, first compound 0.000316 µM) 40.8% | viability, T/C (second compound 0.316 µM, first compound 0.001 µM) 36.3% | viability, T/C (second compound 0.316 µM, first compound 0.00316 µM) 47.8% | viability, T/C (second compound 0.316 µM, first compound 0.01 µM) 38.4% | viability, T/C [6] 46% | viability, T/C [7] 49% | viability, T/C (second compound 1 µM, first compound 0.000316 µM) 27.9% | viability, T/C (second compound 1 µM, first compound 0.001 µM) 33.9% | viability, T/C (second compound 1 µM, first compound 0.00316 µM) 34.6% | viability, T/C (second compound 1 µM, first compound 0.01 µM) 34.8% | viability, T/C [8] 39.7% | viability, T/C [9] 34.6% | viability, T/C (second compound 3.16 µM, first compound 0.000316 µM) 41.6% | viability, T/C (second compound 3.16 µM, first compound 0.001 µM) 32.8% | viability, T/C (second compound 3.16 µM, first compound 0.00316 µM) 25.4% | viability, T/C (second compound 3.16 µM, first compound 0.01 µM) 26.5% | viability, T/C (second compound 3.16 µM, first compound 0.0316 µM) 30.7% | viability, T/C (second compound 3.16 µM, first compound 0.1 µM) 33.9% | viability, T/C (second compound 10 µM, first compound 0.000316 µM) 58% | viability, T/C (second compound 10 µM, first compound 0.001 µM) 48.3% | viability, T/C (second compound 10 µM, first compound 0.00316 µM) 31.8% | viability, T/C (second compound 10 µM, first compound 0.01 µM) 71.6% | viability, T/C (second compound 10 µM, first compound 0.0316 µM) 44.7% | viability, T/C (second compound 10 µM, first compound 0.1 µM) 39.1%
2.46 nM: IC50 [1]
22.1 nM: IC50 (curve of first compound, second compound 10 µM)
< 0.316 nM: IC50 [2] | IC50 [3] | IC50 (curve of first compound, second compound 3.16 µM)

Cn1ncnc1[C@H]1c2n[nH]c(=O)c3cc(F)cc(c23)N[C@@H]1c1ccc(F)cc1 + CCN1C(C(=O)NC23CCC(C(=O)O)(CC2)CC3)C(c2cccc(Cl)c2F)C2(C(=O)Nc3cc(Cl)ccc32)C12CCCCC2
inactive: viability, T/C (second compound 0.03 µM, first compound 0.000316 µM) 142% | viability, T/C (second compound 0.03 µM, first compound 0.001 µM) 56.8% | viability, T/C (second compound 0.03 µM, first compound 0.00316 µM) 100% | viability, T/C (second compound 0.03 µM, first compound 0.01 µM) 57.9% | viability, T/C (second compound 0.03 µM, first compound 0.0316 µM) 76.7% | viability, T/C (second compound 0.03 µM, first compound 0.1 µM) 55.6% | viability, T/C (second compound 0.0949 µM, first compound 0.000316 µM) 104% | viability, T/C (second compound 0.0949 µM, first compound 0.001 µM) 77.5% | viability, T/C (second compound 0.0949 µM, first compound 0.00316 µM) 90.5% | viability, T/C (second compound 0.0949 µM, first compound 0.01 µM) 71.7% | viability, T/C (second compound 0.0949 µM, first compound 0.0316 µM) 66.6% | viability, T/C (second compound 0.0949 µM, first compound 0.1 µM) 49.4% | viability, T/C (second compound 0.3 µM, first compound 0.000316 µM) 90.6% | viability, T/C (second compound 0.3 µM, first compound 0.001 µM) 100% | viability, T/C (second compound 0.3 µM, first compound 0.00316 µM) 101% | viability, T/C (second compound 0.3 µM, first compound 0.01 µM) 110% | viability, T/C (second compound 0.3 µM, first compound 0.0316 µM) 78% | viability, T/C (second compound 0.3 µM, first compound 0.1 µM) 67.8% | viability, T/C (second compound 0.949 µM, first compound 0.000316 µM) 116% | viability, T/C (second compound 0.949 µM, first compound 0.001 µM) 135% | viability, T/C (second compound 0.949 µM, first compound 0.00316 µM) 107% | viability, T/C (second compound 0.949 µM, first compound 0.01 µM) 98.9% | viability, T/C (second compound 0.949 µM, first compound 0.0316 µM) 94.2% | viability, T/C (second compound 0.949 µM, first compound 0.1 µM) 73% | viability, T/C (second compound 3 µM, first compound 0.000316 µM) 146% | viability, T/C (second compound 3 µM, first compound 0.001 µM) 116% | viability, T/C (second compound 3 µM, first compound 0.00316 µM) 122% | viability, T/C (second compound 3 µM, first compound 0.01 µM) 130% | viability, T/C (second compound 3 µM, first compound 0.0316 µM) 122% | viability, T/C (second compound 3 µM, first compound 0.1 µM) 86.6%
> 100 nM: IC50 (curve of first compound, second compound 0.03 µM) | IC50 (curve of first compound, second compound 0.0949 µM) | IC50 (curve of first compound, second compound 0.3 µM) | IC50 (curve of first compound, second compound 0.949 µM) | IC50 (curve of first compound, second compound 3 µM)

O=C(c1cc(Cc2n[nH]c(=O)c3ccccc23)ccc1F)N1CCN(C(=O)C2CC2)CC1 + CNC(C)C(=O)NC1CN(S(=O)(=O)c2cccc(S(=O)(=O)N3CCC4CCC(C(=O)NC(c5ccccc5)c5ccccc5)N4C(=O)C(NC(=O)C(C)NC)C3)c2)CCC2CCC(C(=O)NC(c3ccccc3)c3ccccc3)N2C1=O
> 10000 nM: IC50 (curve of first compound, second compound 0.01 µM) | IC50 (curve of first compound, second compound 0.0316 µM) | IC50 [1] | IC50 [2] | IC50 [3]
inactive: viability, T/C (second compound 0.01 µM, first compound 0.0316 µM) 74.8% | viability, T/C (second compound 0.01 µM, first compound 0.1 µM) 92.3% | viability, T/C (second compound 0.01 µM, first compound 0.316 µM) 60.6% | viability, T/C (second compound 0.01 µM, first compound 1 µM) 66.1% | viability, T/C (second compound 0.01 µM, first compound 3.16 µM) 73.4% | viability, T/C (second compound 0.01 µM, first compound 10 µM) 64.3% | viability, T/C (second compound 0.0316 µM, first compound 0.0316 µM) 66.8% | viability, T/C (second compound 0.0316 µM, first compound 0.1 µM) 77.8% | viability, T/C (second compound 0.0316 µM, first compound 0.316 µM) 98.6% | viability, T/C (second compound 0.0316 µM, first compound 1 µM) 75.8% | viability, T/C (second compound 0.0316 µM, first compound 3.16 µM) 64.9% | viability, T/C (second compound 0.0316 µM, first compound 10 µM) 64.6% | viability, T/C [4] 71.8% | viability, T/C [5] 87.9% | viability, T/C (second compound 0.1 µM, first compound 0.316 µM) 76.4% | viability, T/C (second compound 0.1 µM, first compound 1 µM) 61.1% | viability, T/C (second compound 0.1 µM, first compound 3.16 µM) 74.6% | viability, T/C (second compound 0.1 µM, first compound 10 µM) 73.2% | viability, T/C [6] 89% | viability, T/C [7] 95.7% | viability, T/C (second compound 0.316 µM, first compound 0.316 µM) 82.1% | viability, T/C (second compound 0.316 µM, first compound 1 µM) 71.2% | viability, T/C (second compound 0.316 µM, first compound 3.16 µM) 71.5% | viability, T/C (second compound 0.316 µM, first compound 10 µM) 61.5% | viability, T/C [8] 73% | viability, T/C [9] 81.4% | viability, T/C (second compound 1 µM, first compound 0.316 µM) 78.8% | viability, T/C (second compound 1 µM, first compound 1 µM) 67.6% | viability, T/C (second compound 1 µM, first compound 3.16 µM) 62.5% | viability, T/C (second compound 1 µM, first compound 10 µM) 66.8%

CCN1CCN(Cc2ccc(Nc3ncc(F)c(-c4cc(F)c5nc(C)n(C(C)C)c5c4)n3)nc2)CC1
inactive: viability, T/C (compound 0.00316 µM) 70.6% and 82.3% and 87.5% | viability, T/C (compound 0.01 µM) 72% and 65.5% and 92.3% | viability, T/C (compound 0.0316 µM) 54.5% and 79.2% and 78.5% | viability, T/C (compound 0.1 µM) 66.6% and 70.4% and 70.9% | viability, T/C (compound 0.316 µM) 74.6% and 71.2% and 91.2% | viability, T/C (compound 1 µM) 103% and 98.6% and 108%
> 1000 nM: IC50 (curve of compound)

C#Cc1c(F)ccc2cc(O)cc(-c3ncc4c(N5CC6CCC(C5)N6)nc(OCC56CCCN5CC(F)C6)nc4c3F)c12 (centres undefined)
inactive: viability, T/C (compound 0.0316 µM) 23.2% and 40.7% and 50.5% | viability, T/C (compound 0.1 µM) 28.2% and 48.4% and 47.1% | viability, T/C (compound 0.316 µM) 22.3% and 37.1% and 31.9% | viability, T/C (compound 1 µM) 20.6% and 36.3% and 36.4% | viability, T/C (compound 3.16 µM) 24.6% and 37.5% and 33.1% | viability, T/C (compound 10 µM) 21.9% and 34.4% and 44.3%
< 31.6 nM and 35.9 nM: IC50 (curve of compound)
